Source: patent US9630929B2, “Benzenesulfonamide compounds and their use as therapeutic agents” (XENON PHARMACEUTICALS INC., priority 2011, dated 2017)

Each molecule was assayed against NaV1.7 (Homo sapiens (Human), UniProt Q15858) (assay: NaV flux assay, inhibition of NaV1.7). Settings: NaV flux data, included when EP data is not available.
Assay type: cell-based

Sequence of NaV1.7 (Q15858 other isoform, or with tags, fused parts or gaps): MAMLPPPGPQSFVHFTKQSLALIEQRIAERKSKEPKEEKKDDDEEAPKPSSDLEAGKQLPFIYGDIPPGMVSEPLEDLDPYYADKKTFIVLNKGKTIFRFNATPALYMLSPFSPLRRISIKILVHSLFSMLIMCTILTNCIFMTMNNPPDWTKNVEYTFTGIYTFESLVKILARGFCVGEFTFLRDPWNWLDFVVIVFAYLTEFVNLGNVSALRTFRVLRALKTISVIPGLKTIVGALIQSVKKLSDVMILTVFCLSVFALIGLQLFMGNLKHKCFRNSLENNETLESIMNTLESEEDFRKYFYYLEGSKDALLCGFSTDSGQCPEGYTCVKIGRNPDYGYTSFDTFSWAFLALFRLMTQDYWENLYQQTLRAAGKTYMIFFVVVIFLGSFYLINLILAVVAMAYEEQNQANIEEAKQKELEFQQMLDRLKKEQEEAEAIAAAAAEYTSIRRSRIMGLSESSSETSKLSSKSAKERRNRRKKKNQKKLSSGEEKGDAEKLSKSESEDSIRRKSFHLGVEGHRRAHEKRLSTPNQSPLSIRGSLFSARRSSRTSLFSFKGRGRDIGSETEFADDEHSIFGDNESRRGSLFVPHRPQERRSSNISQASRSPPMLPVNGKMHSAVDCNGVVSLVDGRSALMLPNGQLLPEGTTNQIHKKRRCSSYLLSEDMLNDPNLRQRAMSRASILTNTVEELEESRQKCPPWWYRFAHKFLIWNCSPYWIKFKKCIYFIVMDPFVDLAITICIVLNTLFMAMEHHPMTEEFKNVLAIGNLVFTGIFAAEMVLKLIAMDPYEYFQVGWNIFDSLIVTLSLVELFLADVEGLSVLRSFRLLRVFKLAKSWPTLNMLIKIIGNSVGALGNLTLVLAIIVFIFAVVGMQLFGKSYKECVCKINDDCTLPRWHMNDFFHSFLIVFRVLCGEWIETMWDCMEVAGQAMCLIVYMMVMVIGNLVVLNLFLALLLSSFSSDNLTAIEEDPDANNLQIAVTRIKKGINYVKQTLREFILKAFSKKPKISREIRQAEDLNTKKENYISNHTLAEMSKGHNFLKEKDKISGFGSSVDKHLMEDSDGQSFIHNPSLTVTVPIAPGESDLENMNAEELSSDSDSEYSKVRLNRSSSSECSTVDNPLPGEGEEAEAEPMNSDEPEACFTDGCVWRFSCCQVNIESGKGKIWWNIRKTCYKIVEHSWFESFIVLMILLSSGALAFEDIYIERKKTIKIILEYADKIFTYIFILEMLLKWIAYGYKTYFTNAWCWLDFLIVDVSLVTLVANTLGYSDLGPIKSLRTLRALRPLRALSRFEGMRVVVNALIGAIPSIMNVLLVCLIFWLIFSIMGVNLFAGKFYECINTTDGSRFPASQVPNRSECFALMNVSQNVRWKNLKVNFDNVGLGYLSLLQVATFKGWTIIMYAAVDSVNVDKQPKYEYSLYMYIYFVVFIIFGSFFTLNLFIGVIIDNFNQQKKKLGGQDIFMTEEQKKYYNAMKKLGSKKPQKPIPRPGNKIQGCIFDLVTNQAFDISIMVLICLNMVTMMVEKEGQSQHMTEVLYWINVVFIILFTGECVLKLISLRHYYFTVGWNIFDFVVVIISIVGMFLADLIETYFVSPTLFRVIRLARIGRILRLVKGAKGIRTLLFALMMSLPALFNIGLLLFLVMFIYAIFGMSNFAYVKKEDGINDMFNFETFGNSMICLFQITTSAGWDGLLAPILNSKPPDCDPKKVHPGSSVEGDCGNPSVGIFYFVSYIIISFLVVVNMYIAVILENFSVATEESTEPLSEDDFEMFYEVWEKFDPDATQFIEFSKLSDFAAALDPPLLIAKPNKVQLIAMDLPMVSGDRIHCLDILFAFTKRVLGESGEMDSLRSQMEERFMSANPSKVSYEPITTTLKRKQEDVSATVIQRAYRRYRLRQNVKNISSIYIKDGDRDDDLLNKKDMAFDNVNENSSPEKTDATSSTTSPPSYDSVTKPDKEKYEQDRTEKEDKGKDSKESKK
Sequence of NaV1.7 (Q07699 19-218 partner): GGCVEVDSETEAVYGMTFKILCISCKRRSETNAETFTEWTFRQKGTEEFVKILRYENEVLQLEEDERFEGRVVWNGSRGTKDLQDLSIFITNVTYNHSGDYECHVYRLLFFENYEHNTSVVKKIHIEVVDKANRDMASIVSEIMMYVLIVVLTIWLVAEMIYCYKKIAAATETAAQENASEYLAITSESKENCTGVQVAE

Row | SMILES | IC50 [µM]
1 | O=C(NS(=O)(=O)c1cc(F)c(OC[C@@H]2CNCC[C@H]2c2ccc(Cl)cc2)cc1F)c1ccccc1 (relative stereo) [Example 104, N-((4-((trans-4-(4-chlorophenyl)piperidin-3-yl)methoxy)-2,5-difluorophenyl)sulfonyl)benzamide] | > 10
2 | O=C(NS(=O)(=O)c1cc(F)c(OC[C@@H]2CNCC[C@H]2c2ccc(Cl)cc2)cc1F)c1ccccn1 (relative stereo) [Example 99, N-((4-((trans-4-(4-chlorophenyl)piperidin-3-yl)methoxy)-2,5-difluorophenyl)sulfonyl)picolinamide] | > 10
3 | N#Cc1cc(S(=O)(=O)NCC(F)(F)F)ccc1OC[C@@H]1CNCC[C@H]1c1ccc(Cl)cc1 (relative stereo) [Example 93, 4-((trans-4-(4-chlorophenyl)piperidin-3-yl)methoxy)-3-cyano-N-(2,2,2-trifluoroethyl)benzenesulfonamide] | > 10
4 | CC(C)NS(=O)(=O)c1ccc(OC[C@@H]2CNCC[C@H]2c2ccc(Cl)cc2)c(C#N)c1 (relative stereo) [Example 90, 4-((trans-4-(4-chlorophenyl)piperidin-3-yl)methoxy)-3-cyano-N-isopropylbenzenesulfonamide] | > 10
5 | CC(C)NC(=O)NS(=O)(=O)c1cc(F)c(OC[C@@H]2CNCC[C@H]2c2ccc(Cl)cc2)cc1F (relative stereo) [Example 105, 4-((trans-4-(4-chlorophenyl)piperidin-3-yl)methoxy)-2,5-difluoro-N-(isopropylcarbamoyl)benzenesulfonamide] | > 10
6 | N#Cc1cc(S(=O)(=O)NC2(C#N)CC2)ccc1OC[C@@H]1CNCC[C@H]1c1ccc(Cl)cc1 (relative stereo) [Example 91, 4-((trans-4-(4-chlorophenyl)piperidin-3-yl)methoxy)-3-cyano-N-(1-cyanocyclopropyl)benzenesulfonamide] | > 10
7 | O=C(NS(=O)(=O)c1cc(F)c(OC[C@@H]2CNCC[C@H]2c2ccc(Cl)cc2)cc1F)c1cccnc1 (relative stereo) [Example 103, N-((4-((trans-4-(4-chlorophenyl)piperidin-3-yl)methoxy)-2,5-difluorophenyl)sulfonyl)nicotinamide] | > 10
8 | CC(=O)NS(=O)(=O)c1cc(F)c(OC[C@@H]2CNCC[C@H]2c2ccc(Cl)cc2)cc1F (relative stereo) [Example 102, N-((4-((trans-4-(4-chlorophenyl)piperidin-3-yl)methoxy)-2,5-difluorophenyl)sulfonyl)acetamide] | > 10
9 | O=C1C[C@@H](c2cc(F)c(F)cc2F)[C@H](COc2cc(F)c(S(=O)(=O)Nc3ncns3)cc2F)CN1 (relative stereo) [Example 101, 2,5-difluoro-4-((trans-6-oxo-4-(2,4,5-trifluorophenyl)piperidin-3-yl)methoxy)-N-(1,2,4-thiadiazol-5-yl)benzenesulfonamide] | 4.49
10 | O=S(=O)(Nc1ncns1)c1cc(F)c(OC[C@@H]2CNCC[C@H]2c2ccc(Cl)cc2)c(F)c1 (relative stereo) [Example 81, 4-((trans-4-(4-chlorophenyl)piperidin-3-yl)methoxy)-3,5-difluoro-N-(1,2,4-thiadiazol-5-yl)benzenesulfonamide] | 2.32
